Measured values taken from patent publication US4073786A, “2-Amino-4-hydroxy-6-hydroxymethyl-7,7-diethyl-7,8-dihydropteridine and the 7-spirocyclohexyl analogue thereof” (Burroughs Wellcome Co., priority 1975, dated 1978).

What was measured:
[1] = system: Derm. dermatonomous; details: British Pat. No. 1303171 and Application No. 36289/70; cited from earlier work
[2] = system: Cl. perfringens; details: British Pat. No. 1303171 and Application No. 36289/70; cited from earlier work
[3] = system: Staphylococcus aureus; assay: Inhibitor zone test, pteridine in agar with TMP and/or SMX in the well; type: cell-based; details: conclusion from Table 3
Experimental: The pteridine was included in a soya peptone medium of low thymidine content (Wellcotest Sensitivity test agar) contained in a Petri dish and the other component(s) added to the well resulting from the removal of a small plug from the medium. The surface of the medium was inoculated with the test organism and then incubated. The amount of zone inhibition is shown in Table 3, wherein the numbers represent the complete zone inhibition (i.e. the number of […] from the edge of the well after about 6 × magnification) and the figures in parenthesis include the zones of partial inhibition.

[4] = biological target: hydroxymethyldihydropteridine pyrophosphokinase (HMPPS) (Escherichia coli, UniProt P26281); assay: Inhibition of the enzymes forming dihydropteroic acid (HMPPS ATP-γ-P32 transfer assay; synthetase pAB-C14 assay); type: biochemical; details: E. coli extract enzymes; result of tests (a) HMPPS and (b) synthetase
Sequence of hydroxymethyldihydropteridine pyrophosphokinase (HMPPS) (P26281 whole entry): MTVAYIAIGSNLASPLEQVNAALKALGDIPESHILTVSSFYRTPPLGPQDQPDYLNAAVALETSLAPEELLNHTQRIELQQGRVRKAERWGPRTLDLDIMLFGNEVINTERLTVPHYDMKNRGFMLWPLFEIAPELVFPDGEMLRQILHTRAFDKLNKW
Experimental: The inhibiting activity against HMPPS of a selected compound of formula (I) can, for instance, be tested by monitoring the transfer of the terminal phosphate of adenosinetriphosphate/ATP-γ-P^32 to `dihydropteridine`. […] Such inhibition may, for instance, be easily and simply carried out by incubating an extract of E. coli with pAB-7-C^14, ATP, Mg and `dihydropteridine`. The formation of the dihydropteroate-C^14 can be quantitatively assayed after separating the unreacted pAB substrate, for instance by chromatography. […] Preferably the value is 25μM or less, such as in the range between 2 to 12μM. Generally a value below 7μM is desirable. […]
(a) An assay for HMPPS was developed in which the transfer of the terminal phosphate of ATP-γ-P^32 to Pt could be monitored and correlated with the amount of inhibition of HMPPS by the compound under test. […]
Tubes 1 to 9 containing the amounts of components shown in the Table, were filled up to 200μl with distilled water, incubated for 60 minutes at 37° C and then chilled on ice. […] The charcoal and the filter were then radioactively counted. […]
(b) The activity of the test compound of formula (I) against `synthetase` was determined as follows, by monitoring the formation of dihydropteroate C^14. […]

Row | SMILES | bacteriostatic activity [1] | bacteriostatic activity [2] | synergistic activity with TMP and/or SMX [3] | IC50 [4] [nM]
1 | CC1(C)Nc2nc(N)nc(O)c2N=C1CO [2-amino-4-hydroxy-6-hydroxymethyl-7,7-dimethyl-7,8-dihydropteridine] | particularly effective | particularly effective |  | 
2 | CC1=Nc2c(nc(N)[nH]c2=O)NC1(C)C [2-amino-4-hyroxy-6-methyl-7,7-dimethyl-7,8-dihydropteridine] | particularly effective | particularly effective |  | 
3 | CCC1(CC)Nc2nc(N)nc(O)c2N=C1CO [R=CH2 OH R^1 =R^2 =Et, 2-amino-4-hydroxy-6-hydroxymethyl-7,7-diethyl-7,8-dihydropteridine] |  |  | synergism with TMP and SMX alone and multiple synergism with both | 2100
